# In patent US8841288B2, “Quinolin-4 (1H)-one derivatives as inhibitors of phosphatidylinositol 3-kinases” (Universtà Degli Studi di Torino, priority 2010, dated 2014):
# Biological target: p110α (Homo sapiens (Human), UniProt P42336)
# Experiment: PI3K lipid kinase activity on lipid micelles (ADP-Glo), p110α
# Assay type: biochemical
# Conditions: 10 μM ATP
# Description: a) Some compounds of formula (I) described herein were assayed in vitro for their ability to inhibit the lipid kinase activity of PI3Ks, by using a non-radioactive method.
# In details, His and GST-tagged recombinant proteins (purchased from JenaBioscience—Germany; PI3Kα #PR-335, PI3Kβ #PR-344, PI3Kγ #PR-343, PI3Kδ #PR-345) for each isoform PI3Kα, β, γ and δ, were incubated with 10 μM of ATP, with lipid micells containg the appropriate substrate phosphatidylinositol and the phosphatidilserine, and different concentrations of the formula (I) compounds.
# After 30 minutes of incubation at room temperature, the amount of ADP produced from ATP following the activation of kinase was measured with a luminescent kinase assay, ADP-Glo™ Kinase Assay (purchased from Promega—USA #V9101).
# The luminescent signal positively correlates with the formed ADP and, therefore, with the kinase activity.
# Inhibition of PI3K lipid kinase activity is achieved when the amount of ADP—that is correlated with the PI3K activity—in the presence of the assayed compound of formula (I) is lower than the amount detected in the control samples.
# For each assayed formula (I) compound, a specific IC50 for each class I PI3K isoform was measured.
# The IC50 of a formula (I) compound is the concentration of the compound able to inhibit by 50% the kinase activity of each PI3K isoform.
# The IC50 was determined by constructing a dose-response curve and examining the inhibitory effect of different concentrations of the assayed formula (I) compounds on the ADP production.
# To evaluate the ability of each compound of formula (I) to inhibit the lipid kinase activity of each PI3K isoform, PI3Kα, β, γ and δ recombinant proteins (30 ng for each assay) were incubated for about 30 minutes with different concentrations of compounds.
# Lipid micelles were formed by sonicating a mixture of 1 mg of phosphatidylinositol and 1 mg of phosphatidylserine. Lipid micelles were use as substrate for the PI3K lipid kinase activity. The reaction was started by adding 10 μM of ATP and 10 μM of micelles to each reaction.
# After 30 minutes of incubation at room temperature, the reaction was stopped and the amount of ADP produced was measured by using the ADP-glo assay (see above).
# Sequence of p110α (P42336 whole entry): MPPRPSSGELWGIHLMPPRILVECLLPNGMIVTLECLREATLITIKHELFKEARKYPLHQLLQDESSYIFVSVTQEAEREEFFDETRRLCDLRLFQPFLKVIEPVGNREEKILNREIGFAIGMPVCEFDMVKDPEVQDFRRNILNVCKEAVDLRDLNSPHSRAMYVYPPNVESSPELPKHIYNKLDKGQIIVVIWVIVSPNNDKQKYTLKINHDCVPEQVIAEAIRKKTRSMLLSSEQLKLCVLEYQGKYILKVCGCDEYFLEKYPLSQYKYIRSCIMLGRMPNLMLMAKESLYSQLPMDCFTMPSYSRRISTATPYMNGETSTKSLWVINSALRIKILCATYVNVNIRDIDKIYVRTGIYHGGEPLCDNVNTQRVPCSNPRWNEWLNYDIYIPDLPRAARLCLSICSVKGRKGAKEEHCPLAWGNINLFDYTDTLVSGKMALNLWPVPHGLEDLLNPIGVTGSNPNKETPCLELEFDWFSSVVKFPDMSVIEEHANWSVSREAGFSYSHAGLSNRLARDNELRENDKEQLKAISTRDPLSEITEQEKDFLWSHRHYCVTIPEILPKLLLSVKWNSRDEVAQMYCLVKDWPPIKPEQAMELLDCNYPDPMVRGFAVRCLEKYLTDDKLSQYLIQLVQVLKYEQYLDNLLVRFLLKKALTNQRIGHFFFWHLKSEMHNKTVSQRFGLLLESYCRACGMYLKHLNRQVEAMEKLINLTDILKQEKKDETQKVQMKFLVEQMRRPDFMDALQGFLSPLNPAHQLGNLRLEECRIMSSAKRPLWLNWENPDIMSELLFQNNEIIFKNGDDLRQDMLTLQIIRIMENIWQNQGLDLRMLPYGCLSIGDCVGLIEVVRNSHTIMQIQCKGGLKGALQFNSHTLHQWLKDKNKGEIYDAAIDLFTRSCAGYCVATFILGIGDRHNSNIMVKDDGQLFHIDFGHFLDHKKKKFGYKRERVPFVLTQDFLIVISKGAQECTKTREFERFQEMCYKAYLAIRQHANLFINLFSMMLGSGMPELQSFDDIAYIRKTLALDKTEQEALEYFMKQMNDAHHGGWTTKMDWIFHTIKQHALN
# Sequence of p110α (P27986 whole entry partner): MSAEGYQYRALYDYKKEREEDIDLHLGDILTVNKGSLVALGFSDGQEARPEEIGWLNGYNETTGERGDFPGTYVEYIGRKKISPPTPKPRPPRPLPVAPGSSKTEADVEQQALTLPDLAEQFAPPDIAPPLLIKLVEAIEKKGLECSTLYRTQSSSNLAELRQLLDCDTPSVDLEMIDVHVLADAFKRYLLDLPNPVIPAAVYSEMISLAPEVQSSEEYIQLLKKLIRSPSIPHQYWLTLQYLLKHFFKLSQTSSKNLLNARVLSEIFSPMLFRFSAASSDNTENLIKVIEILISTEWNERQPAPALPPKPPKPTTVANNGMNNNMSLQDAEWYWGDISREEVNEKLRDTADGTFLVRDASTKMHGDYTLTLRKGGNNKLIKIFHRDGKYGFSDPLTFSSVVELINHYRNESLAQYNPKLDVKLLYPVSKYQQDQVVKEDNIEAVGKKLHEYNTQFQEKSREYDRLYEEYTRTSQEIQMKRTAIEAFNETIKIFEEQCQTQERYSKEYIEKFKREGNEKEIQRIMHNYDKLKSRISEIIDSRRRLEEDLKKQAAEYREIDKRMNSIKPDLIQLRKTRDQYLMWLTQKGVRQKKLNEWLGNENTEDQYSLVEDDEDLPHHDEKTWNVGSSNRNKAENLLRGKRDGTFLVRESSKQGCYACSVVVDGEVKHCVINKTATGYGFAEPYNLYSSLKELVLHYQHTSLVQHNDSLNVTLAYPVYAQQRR
row,Structure (SMILES),IC50
1,"O=c1cc(N2CCOCC2)[nH]c2c(-c3cn(-c4ccccc4)nn3)cccc12 [CL1, 2-morpholino-8-(1-phenyl-1h-1,2,3-triazol-4-yl)quinolin-4(1H)-one]",0.73 µM
2,"O=c1cc(N2CCOCC2)[nH]c2c(-c3cn(Cc4ccccc4)nn3)cccc12 [CL5, 8-(1-benzyl-1H-1,2,3-triazol-4-yl)-2-morpholinoquinolin-4(1H)-one]",0.26 µM
3,"N#CCc1ccc(-n2cc(-c3cccc4c(=O)cc(N5CCOCC5)[nH]c34)nn2)cc1 [CL12, 2-(4-(4-(2-morpholino-4-oxo-1,4-dihydroquinolin-8-yl)-1H-1,2,3-triazol-1-yl)phenyl) acetonitrile]",0.1 µM
4,"O=C(O)c1cccc(Cn2cc(-c3cccc4c(=O)cc(N5CCOCC5)[nH]c34)nn2)c1 [CL27e, 3-((4-(2-morpholino-4-oxo-1,4-dihydroquinolin-8-yl)-1H-1,2,3-triazol-1-yl)methyl)benzoic acid]",0.02 µM
5,"Cc1cc(F)ccc1Oc1cccc2c(=O)cc(N3CCOCC3)[nH]c12 [TGX155, reference compound]",> 20 µM

# The next lines start with the values.
row,IC50,Structure (SMILES)
1,0.32 µM,"O=C(O)c1ccc(-n2cc(-c3cccc4c(=O)cc(N5CCOCC5)[nH]c34)nn2)cc1 [CL29a, 4-(4-(2-morpholino-4-oxo-1,4-dihydroquinolin-8-yl)-1H-1,2,3-triazol-1-yl)benzoic acid]"
2,0.1 µM,"O=C(O)CCCn1cc(-c2cccc3c(=O)cc(N4CCOCC4)[nH]c23)nn1 [CL55a, 4-(4-(2-morpholino-4-oxo-1,4-dihydroquinolin-8-yl)-1H-1,2,3-triazol-1-yl)butanoic acid]"
3,0.1 µM,"O=C(O)c1cccc(-n2cc(-c3cccc4c(=O)cc(N5CCOCC5)[nH]c34)nn2)c1 [CL55b, 3-(4-(2-morpholino-4-oxo-1,4-dihydroquinolin-8-yl)-1H-1,2,3-triazol-1-yl)benzoic acid]"
4,0.1 µM,"O=C(O)CCCCn1cc(-c2cccc3c(=O)cc(N4CCOCC4)[nH]c23)nn1 [CL64a, 5-(4-(2-morpholino-4-oxo-1,4-dihydroquinolin-8-yl)-1H-1,2,3-triazol-1-yl)pentanoic acid]"
5,0.14 µM,"O=C(NCc1ccccc1)c1cccc(Cn2cc(-c3cccc4c(=O)cc(N5CCOCC5)[nH]c34)nn2)c1 [CL129a, N-benzyl-3-((4-(2-morpholino-4-oxo-1,4-dihydroquinolin-8-yl)-1H-1,2,3-triazol-1-yl)methyl) benzamide]"
6,0.26 µM,"O=c1cc(N2CCOCC2)[nH]c2c(-c3cn(-c4ccccc4O)nn3)cccc12 [TP714, 8-(1-(2-hydroxyphenyl)-1H-1,2,3-triazol-4-yl)-2-morpholinoquinolin-4(1H)-one]"
